Source: US9708314B2, “Heterocyclic amide compound” (NISSAN CHEMICAL INDUSTRIES, LTD., priority 2013, dated 2017)

Tests used:
Format in all cases: in vivo
Amaranthus retroflexus = assay: Test Example 4: herbicidal effect by application to foliage (diluvial soil, plastic box); conditions: application to foliage, application herbicide amount 320 g/ha
In short: (§1)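 Seeds sown in sterilized diluvial soil, covered ~1.5 cm, grown 14 days in greenhouse at 25° C. to 30° C. Emulsion formulation diluted in water to set rate (g/ha) and sprayed onto stems and leaves. Effect scored visually 3 weeks later on 0–5 scale (5 = ≥90% herbicidal ratio, 0 = ≤5%).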

Stellaria media = assay: as above; conditions: application to foliage, application herbicide amount 320 g/ha
In short: as §1

Monochoria vaginalis = assay: Test Example 2: herbicidal activity, application during weed generation in submerged conditions; conditions: Eighteenth Table; application herbicide amount 320 g/ha
In short: (§2)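 Scored three weeks post-application on a 0–5 scale (5: ≥90% herbicidal ratio, almost withered; 0: ≤5%). Plants raised from mixed-sown seed in submerged alluvial soil (4 cm water), 25–30 °C greenhouse; water-diluted emulsion applied onto water surface at one- to two-leaf stage, dose in g/ha.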

Scirpus juncoides = assay: as above; conditions: Eighteenth Table; application herbicide amount 320 g/ha
In short: as §2

[1] = test system: Echinochloa oryzacola Vasing.; assay: as above; conditions: Eighteenth Table; application herbicide amount 320 g/ha
In short: as §2

| Structure (SMILES) | N (Amaranthus retroflexus) herbicidal effect (Amaranthus retroflexus) | P (Stellaria media) herbicidal effect (Stellaria media) | C (Monochoria vaginalis) herbicidal ratio grade (Monochoria vaginalis) | B (Scirpus juncoides) herbicidal ratio grade (Scirpus juncoides) | A (Echinochloa oryzicola Vasing.) herbicidal ratio grade [1] |
| --- | --- | --- | --- | --- | --- |
| CCOCc1nnc2c(C(=O)Nc3nnc(C)o3)ccc(C(F)(F)F)n12 [1-027] | 5 (Herbicidal ratio of 90% or more (almost completely withered)) | 5 (Herbicidal ratio of 90% or more (almost completely withered)) | 3 (Herbicidal ratio of 40% or more and less than 70%) | 3 (Herbicidal ratio of 40% or more and less than 70%) | 4 (Herbicidal ratio of 70% or more and less than 90%) |
| Cc1nnc(NC(=O)c2ccc(C(F)(F)F)n3c(C4=NOC(C)(C)C4)nnc23)o1 [1-029] | 5 (Herbicidal ratio of 90% or more (almost completely withered)) | 5 (Herbicidal ratio of 90% or more (almost completely withered)) | 3 (Herbicidal ratio of 40% or more and less than 70%) | 2 (Herbicidal ratio of 20% or more and less than 40%) | 3 (Herbicidal ratio of 40% or more and less than 70%) |
| CSCc1nnc2c(C(=O)Nc3nnc(C)o3)ccc(C(F)(F)F)n12 [1-030] | 5 (Herbicidal ratio of 90% or more (almost completely withered)) | 5 (Herbicidal ratio of 90% or more (almost completely withered)) | 3 (Herbicidal ratio of 40% or more and less than 70%) | 3 (Herbicidal ratio of 40% or more and less than 70%) | 4 (Herbicidal ratio of 70% or more and less than 90%) |
| Cc1nnc(NC(=O)c2ccc(C(F)(F)F)n3c(CSCC(F)(F)F)nnc23)o1 [1-031] | 4 (Herbicidal ratio of 70% or more and less than 90%) | 4 (Herbicidal ratio of 70% or more and less than 90%) | 2 (Herbicidal ratio of 20% or more and less than 40%) | 2 (Herbicidal ratio of 20% or more and less than 40%) | 3 (Herbicidal ratio of 40% or more and less than 70%) |
| CCSc1nnc2c(C(=O)Nc3nnc(C)o3)ccc(C(F)(F)F)n12 [1-032] | 5 (Herbicidal ratio of 90% or more (almost completely withered)) | 5 (Herbicidal ratio of 90% or more (almost completely withered)) | 3 (Herbicidal ratio of 40% or more and less than 70%) | 3 (Herbicidal ratio of 40% or more and less than 70%) | 4 (Herbicidal ratio of 70% or more and less than 90%) |
| Cc1nnc(NC(=O)c2ccc(C(F)(F)F)n3c(SC(C)C)nnc23)o1 [1-033] | 5 (Herbicidal ratio of 90% or more (almost completely withered)) | 5 (Herbicidal ratio of 90% or more (almost completely withered)) | 3 (Herbicidal ratio of 40% or more and less than 70%) | 4 (Herbicidal ratio of 70% or more and less than 90%) | 4 (Herbicidal ratio of 70% or more and less than 90%) |
| CC[S+]([O-])c1nnc2c(C(=O)Nc3nnc(C)o3)ccc(C(F)(F)F)n12 (stereo not drawn) [1-034] | 5 (Herbicidal ratio of 90% or more (almost completely withered)) | 5 (Herbicidal ratio of 90% or more (almost completely withered)) | 4 (Herbicidal ratio of 70% or more and less than 90%) | 3 (Herbicidal ratio of 40% or more and less than 70%) | 4 (Herbicidal ratio of 70% or more and less than 90%) |
| Cc1nnc(NC(=O)c2ccc(C(F)(F)F)n3c([S+]([O-])C(C)C)nnc23)o1 (stereo not drawn) [1-035] | 5 (Herbicidal ratio of 90% or more (almost completely withered)) | 5 (Herbicidal ratio of 90% or more (almost completely withered)) | 4 (Herbicidal ratio of 70% or more and less than 90%) | 4 (Herbicidal ratio of 70% or more and less than 90%) | 5 (Herbicidal ratio of 90% or more (almost completely withered)) |
| Cc1nnc(NC(=O)c2ccc(C(F)(F)F)n3c(C[S+](C)[O-])nnc23)o1 (stereo not drawn) [1-036] | 5 (Herbicidal ratio of 90% or more (almost completely withered)) | 5 (Herbicidal ratio of 90% or more (almost completely withered)) | 4 (Herbicidal ratio of 70% or more and less than 90%) | 2 (Herbicidal ratio of 20% or more and less than 40%) | 3 (Herbicidal ratio of 40% or more and less than 70%) |
| Cc1nnc(NC(=O)c2ccc(C(F)(F)F)n3c(C[S+]([O-])CC(F)(F)F)nnc23)o1 (stereo not drawn) [1-038] | 5 (Herbicidal ratio of 90% or more (almost completely withered)) | 5 (Herbicidal ratio of 90% or more (almost completely withered)) | 0 (Herbicidal ratio of 5% or less (almost no effect)) | 1 (Herbicidal ratio of 5% or more and less than 20%) | 1 (Herbicidal ratio of 5% or more and less than 20%) |
| CCOC(=O)Cc1nnc2c(C(=O)Nc3nnc(C)o3)ccc(C(F)(F)F)n12 [1-042] | 4 (Herbicidal ratio of 70% or more and less than 90%) | 4 (Herbicidal ratio of 70% or more and less than 90%) | 3 (Herbicidal ratio of 40% or more and less than 70%) | 2 (Herbicidal ratio of 20% or more and less than 40%) | 1 (Herbicidal ratio of 5% or more and less than 20%) |
| Cc1ccc(-c2nnc3c(C(=O)Nc4nnc(C)o4)ccc(C(F)(F)F)n23)cc1 [1-043] | 5 (Herbicidal ratio of 90% or more (almost completely withered)) | 4 (Herbicidal ratio of 70% or more and less than 90%) | 3 (Herbicidal ratio of 40% or more and less than 70%) | 3 (Herbicidal ratio of 40% or more and less than 70%) | 3 (Herbicidal ratio of 40% or more and less than 70%) |
| Cc1nnc(NC(=O)c2ccc(C(F)(F)F)n3c(-c4ccc(F)cc4)nnc23)o1 [1-044] | 5 (Herbicidal ratio of 90% or more (almost completely withered)) | 4 (Herbicidal ratio of 70% or more and less than 90%) | 2 (Herbicidal ratio of 20% or more and less than 40%) | 3 (Herbicidal ratio of 40% or more and less than 70%) | 2 (Herbicidal ratio of 20% or more and less than 40%) |
| COc1ccccc1-c1nnc2c(C(=O)Nc3nnc(C)o3)ccc(C(F)(F)F)n12 [1-047] | 5 (Herbicidal ratio of 90% or more (almost completely withered)) | 4 (Herbicidal ratio of 70% or more and less than 90%) | 3 (Herbicidal ratio of 40% or more and less than 70%) | 2 (Herbicidal ratio of 20% or more and less than 40%) | 3 (Herbicidal ratio of 40% or more and less than 70%) |
| Cc1nnc(NC(=O)c2ccc(C(F)(F)F)n3c(CC(=O)O)nnc23)o1 [1-048] | 4 (Herbicidal ratio of 70% or more and less than 90%) | 4 (Herbicidal ratio of 70% or more and less than 90%) | 0 (Herbicidal ratio of 5% or less (almost no effect)) | 1 (Herbicidal ratio of 5% or more and less than 20%) | 0 (Herbicidal ratio of 5% or less (almost no effect)) |
| Cc1nnc(NC(=O)c2ccc(C(F)(F)F)n3c(CC(=O)OC(C)C)nnc23)o1 [1-049] | 5 (Herbicidal ratio of 90% or more (almost completely withered)) | 4 (Herbicidal ratio of 70% or more and less than 90%) | 2 (Herbicidal ratio of 20% or more and less than 40%) | 2 (Herbicidal ratio of 20% or more and less than 40%) | 4 (Herbicidal ratio of 70% or more and less than 90%) |
| CC(C)c1nnc2c(C(=O)Nc3nnco3)ccc(C(F)(F)F)n12 [1-050] | 5 (Herbicidal ratio of 90% or more (almost completely withered)) | 5 (Herbicidal ratio of 90% or more (almost completely withered)) | 3 (Herbicidal ratio of 40% or more and less than 70%) | 4 (Herbicidal ratio of 70% or more and less than 90%) | 5 (Herbicidal ratio of 90% or more (almost completely withered)) |
| CC(C)c1nnc2c(C(=O)Nc3nnc(C4CC4)o3)ccc(C(F)(F)F)n12 [1-051] | 3 (Herbicidal ratio of 40% or more and less than 70%) | 3 (Herbicidal ratio of 40% or more and less than 70%) | 4 (Herbicidal ratio of 70% or more and less than 90%) | 3 (Herbicidal ratio of 40% or more and less than 70%) | 4 (Herbicidal ratio of 70% or more and less than 90%) |
